Reference: publication PMC7955127, “Preclinical small molecule WEHI-7326 overcomes drug resistance and elicits response in patient-derived xenograft models of human treatment-refractory tumors” (Cell Death & Disease, 2021)

How the values were obtained:
SW480 = test: Cell growth inhibition assay, SW480; assay type: cell-based, human
Description: (§1) Cells were plated at a density of between 500 to 5000 cells per well for adherent cell lines depending on doubling time, and 15,000 cells per well for lymphoblastic leukemia cell lines, in a 96-well plate in 200 μl of growth media. Plates were incubated overnight at 37 °C before adding the inhibitors. Inhibitors were serially diluted from the stock solutions in complete medium and added to the cells. Incubation in the presence of inhibitors was continued for 72 days. Cell viability was assessed by the AlamarBlue (Invitrogen) or CellTiterBlue/Glo (Promega) method according to manufacturer’s instructions. The curve fits and IC50 values were generated in PRISM (GraphPad, San Diego, CA).
a Chemical structures of the triazine-based anti-mitotics used in this study. b Dose-dependent antiproliferative activity of key derivatives and comparison with commonly used anti-mitotics in SW480 cell line: Data shown is cell viability (as measured by CellTiterGlo) after 72 h relative to untreated control cells. Shown is mean of 3 independent experiments performed in duplicate +/- SEM. c Dose-dependent cell cycle analysis of key derivatives of WEHI-7326 development in SW480 cell line. Data are presented as percentage of cells in G2/M or subG0 after 24 h incubation with titration of inhibitors as assessed by PI staining and flow cytometry. Mean average of 3 experiments +/- SEM. d Comparison of IC50 and EC50 values of triazine compounds and anti-mitotic drugs in SW480 cell line: inhibition of cellular proliferation and cell cycle arrest in G2/M. IC50 and EC50 values are the mean of 3 independent experiments run in duplicates +/- SEM (n.d. = not determined). e HepG2 cytotoxic assay: cell viability assay after 48 h, normalised to 0.4% DMSO (100% viability) and 2 μM bortezomib (0% viability). The data is the mean average of 2 experiments +/- SD.

U87MGΔ2–7 = test: Cell growth inhibition assay, U87MGΔ2–7; assay type: cell-based; conditions: Homo sapiens; U87MGΔ2–7, glioblastoma expressing activated EGFR; 72 h viability assay, CellTiterGlo; mean of 3 ± SEM; read-out: IC50 (inhibition of cellular proliferation)
Description: as §1, with “Incubation in the presence of inhibitors was continued for 72 days.” left out

MDA-MB-231 = test: Cell cycle analysis (G2/M arrest, PI staining, flow cytometry), MDA-MB-231; assay type: cell-based; conditions: Homo sapiens, MDA-MB-231, read-out: EC50 (G2/M arrest)
Description: Fig. 2 Antimitotic activity of WEHI-7326: cancer cell lines and effects on tubulin polymerization. a Dose-dependent antimitotic activity of WEHI-7326, nocodazol and taxol in tumor cell lines SW480 (colorectal) and MDA-MB-231 (breast). Data are presented as percentage of cells in G2/M after overnight incubation with increasing concentrations of inhibitors and PI staining followed by flow cytometry analysis. Mean average of 3 independent experiments ±SEM. b EC50 values (nM) for G2/M arrest on SW480 and MDA-MB-231 cell lines, given as mean average of 3 independent experiments ±SEM. c Western blot analysis of mitotic arrest in SW480 and MDA-MB-231 cells treated with EC50 concentrations of WEHI-7326 or Paclitaxel as marked by expression of phosho-S10 Histone H3 (p-HH3 S10), at different timepoints post treatment. Expression of β-actin provided as loading control. d Cell cycle analysis of LIM1899 cells 72 h post treatment with increasing concentrations of WEHI-7326 as measured by PI staining for DNA content followed by flow cytometry analysis. Sub-G1 represents apoptotic fractions and >4 N cell fractions of mitotic slippage. e Immunofluorescence confocal microscopy of tubulin polymerization in SW480 cells treated by various agents. […] Representative blot of 3 independent experiments. g Tubulin polymerization was assessed in vitro over time using a fluorescence-based tubulin polymerization assay (BK011P). […] Polymerization was measured by excitation at 360 nm and emission at 420 nm. […]
Cells in log growth were supplemented with fresh medium with either vehicle (control) or compound at the stated final concentrations. […] After 1 h incubation at room temperature in the dark, cells were analyzed on a FACScan (Becton and Dickinson) in CellQuest. The percentage of cells in each phase of the cell cycle was determined using ModFit software (Verity, http://www.vsh.com). Early and late apoptotic responses elicited by WEHI-7326 were assessed using Dead Cell Apoptosis Kit (ThermoFisher Scientific) with Annexin V FITC and PI following manufacturer’s instructions. […]

SMILES: COc1ccc(CNc2nc(NCc3ccc(CN)cc3)nc(NN3CC(=O)NC3=O)n2)cc1 [WEHI-7326]
- IC50 (SW480; Homo sapiens, SW480, colon carcinoma, 72 h viability assay, CellTiterGlo, mean of 3 ± SEM, read-out: IC50 (inhibition of cellular proliferation)): 39.5 ± 4.1 nM
- Potency relative to myoseverin B (SW480; SW480): almost ten-fold
- Concentration inhibiting proliferation (SW480; SW480 colon cancer cell line in vitro): at or below micromolar concentration
- IC50 (U87MGΔ2–7): 6.1 ± 1.6 nM
- EC50 (MDA-MB-231): 19 ± 2.2 nM
